# In patent US9121026B2 (priority 2004, dated 2015):
# Columns and labels:
# [1] = system: RE700A i PPMA1-HXT7 (ICFP); assay: Growth inhibition of ICFP by 2-DG; type: cell-based, Saccharomyces cerevisiae; settings: 20 h 28° C., maltose, in percent of growth of RE700A
# Method: (B) RE700A, ICFP and IT[PDR] were incubated 20 h at 28° C. with maltose (2% (w/v)) as the sole carbon source and the indicated 2-DG concentrations. The optical density was measured at 600 nm every 15 minutes and the integral under the growth curve is calculated. Inhibition of growth of ICFP and IT[PDR] is shown in percent of growth of RE700A. Growth of ICFP was inhibited by 15% at 0.01% (w/v) 2-DG, by 74% at 0.03% (w/v) 2-DG, by 80% at 0.05% (w/v) 2-DG and by 83% at 0.1% (w/v) 2-DG. Growth of IT[PDR] was inhibited by 21% at 0.01% (w/v) 2-DG, by 79% at 0.03% (w/v) 2-DG, by 88% at 0.05% (w/v) 2-DG and by 96% in 0.1% (w/v) 2-DG.
# Strain growth: The growth of the strains in liquid medium was determined by measuring the optical density at 600 nm. To obtain growth curves, measurements were performed every 15 min. Alternatively, start and endpoint (after 12-16 h) measurements were carried out.
# [2] = system: RE700A Δpdr1 tok1::PPDR5long-HXT7; assay: Growth of RE700A Δpdr1 tok1::PPDR5long-HXT7 in the presence of 2-DG; type: cell-based, Saccharomyces cerevisiae; settings: RE700A Δpdr1 tok1::PPDR5long-HXT7, 20 h 28° C.
# Method: (B) Relative growth of RE700A tok1::PPDR5long-HXT7, RE700A Δpdr1 tok1::PPDR5long-HXT7, RE700A Δpdr3 tok1::PPDR5long-HXT7 and RE700A Δpdr1,3 tok1::PPDR5long-HXT7 in the presence of 2-DG. Cells were incubated for 20 h at 28° C. with 2-DG at different concentrations. […] The standard error of the mean (n=5) is indicated.
compound,measurement,setting,value
"O=CC[C@@H](O)[C@H](O)[C@H](O)CO [2-DG, 2-deoxy-glucose]",Inhibition of growth,[1]; 0.01% (w/v) 2-DG,15%
same,Inhibition of growth,[1]; 0.03% (w/v) 2-DG,74%
same,Inhibition of growth,[1]; 0.05% (w/v) 2-DG,80%
same,Inhibition of growth,[1]; 0.1% (w/v) 2-DG,83%
same,2-DG concentration for 50% growth inhibition,[2],0.068 % (w/v)
